Measured values taken from US10807958B2, “1,4-bis(3-aminopropyl)piperazine derivative and its use” (INSERM (Institut National de la Sante et de la Recherche …, priority 2015, dated 2020).

Tested on: Neuroblastoma SKNSH-SY5Y cells expressing the human Tau isoform 412
Assay: 1D gel electrophoresis / Western blot of Tau expression and phosphorylation in treated cells
Format: cell-based
Settings: 10 μM, vs induced but non-treated condition, FIG. 1
Excerpt: Pan-Tau and phospho-dependent Tau antibodies included Tau-Nter (M19G, 1/10 000, Sergeant et al., 1999), Tau-Cter (1/10 000, Sergeant et al., 1999, Le Freche et al., 2012), Tau-1 (1/5000, Merck Millipore), S199P (directed against the phospho-serine 199, 1/4000, Sergeant et al., 1999), Tau-Phospho S396 (directed against the phosphor-serine 396, 1/10000, Lifetechnologies), Tau-Phospho 404 (1/10 000, Lifetechnologies), 422 (clone 2H9, a homemade monoclonal antibody developed against a phospho-peptide containing the phosphorylated serine 422 residue of Tau, numbering according to the longest human brain Tau-441 isoform), AT8 (1/1000, Thermo Scientific), AT270 (1/2000, Thermo Scientific), AT100 (1/1000, Thermo Scientific). Neuron specific enolase (1/10 000), β-actin (1/5000) and β-tubulin (1/10 000) were from Sigma-Aldrich.
Human neuroblastoma cell line SKNSH-SY5Y cells expressing the human Tau isoform 412 (with the exon 2 and 10 encoding sequences) (or SY5Y-Tau46) was as previously described in Bretteville et al., 2009.
Neuroblastoma SKNSH-SY5Y cells expressing the human Tau isoform 412 (with the exon 2 and 10 encoding sequences) were treated with 10 μM of the hydrochloride salt of N-[3-(4-{3-[Bis(2-methylpropyl)amino]propyl}piperazin-1-yl)propyl]-1,2,3,4-tetrahydroacridin-9-amine (Example 6, hereinafter named “Compound I⋅HCl”) which was diluted in the culture medium as described in Bretteville et al., 2009.
For the western-blot analysis of Tau proteins, SDS-PAGE was performed according to the manufacturer's instructions using Bis-Tris 4-12% gradient acrylamide gel (NuPage® Bis-Tris PreCast 12 wells, Life Technologies). The apparent molecular weights were calibrated using the molecular weight markers (Novex and Magic Marks, Life Technologies). Electrophoresis was performed under a continuous tension of 100V/per gel for 1 h. […]
The effect of the compound of Formula I on Tau phosphorylation was analyzed in vitro and in vivo. […]
Expression and total phosphorylation was assessed by 1D and 2D gel electrophoresis using phospho-dependent and pan-Tau antibodies (FIGS. 1 and 2). […]

CC(C)CN(CCCN1CCN(CCCNc2c3c(nc4ccccc24)CCCC3)CC1)CC(C)C [compound of Formula I, N-[3-(4-{3-[Bis(2-methylpropyl)amino]propyl}piperazin-1-yl)propyl]-1,2,3,4-tetrahydroacridin-9-amine]
Tau phosphorylation at serine 199 (S199P antibody): reduced
Tau phosphorylation at serine 396 (S396 antibody): reduced
Tau expression (pan-Tau antibodies): No significant change
